In ChEMBL document CHEMBL5620344, “Discovery of novel 5-(2-hydroxyphenyl)-2-phthalide-3(3H)-pyrazolones as balanced multifunctional agents against Alzheimer's disease” (Eur J Med Chem, 2023):
Active and inactive are the calls of the source. The calls are words filed in the database; no cut-off is given here.

Experiments:
[1] = molecular target: T1, Amine oxidase [flavin-containing] B (Homo sapiens, UniProt P27338); experiment: Inhibition of human recombinant MAO-B
T1 sequence (P27338 whole entry): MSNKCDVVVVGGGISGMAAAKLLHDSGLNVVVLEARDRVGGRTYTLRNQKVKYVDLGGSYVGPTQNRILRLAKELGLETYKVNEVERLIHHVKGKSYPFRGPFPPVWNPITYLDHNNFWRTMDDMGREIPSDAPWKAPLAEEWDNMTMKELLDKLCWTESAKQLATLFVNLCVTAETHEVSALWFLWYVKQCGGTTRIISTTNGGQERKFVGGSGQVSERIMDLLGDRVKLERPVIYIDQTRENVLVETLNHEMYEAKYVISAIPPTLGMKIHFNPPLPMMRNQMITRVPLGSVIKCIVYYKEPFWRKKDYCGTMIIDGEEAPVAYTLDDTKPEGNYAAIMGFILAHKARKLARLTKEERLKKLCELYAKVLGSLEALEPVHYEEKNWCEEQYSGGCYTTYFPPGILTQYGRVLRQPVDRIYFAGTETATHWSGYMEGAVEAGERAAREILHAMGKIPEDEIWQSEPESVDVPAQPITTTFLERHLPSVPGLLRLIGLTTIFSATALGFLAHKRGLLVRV

[2] = Selectivity index, ratio of IC50 for human recombinant MAO-A to IC50 for human recombinant MAO-B
[3] = Metal chelating activity assessed as compound-Cu2+ complex formation by measuring red shift of absorption peak with declined absorption at 37.5 uM in presence of CuCl2 by UV-Vis spectrometry
[4] = Metal chelating activity assessed as compound-Zn2+ complex formation by measuring red shift of absorption peak with declined absorption at 37.5 uM in presence of ZnCl2 by UV-Vis spectrometry
[5] = Metal chelating activity assessed as compound-Fe2+ complex formation by measuring increase in absorbance at 37.5 uM in presence of FeSO4 by UV-vis spectrometry
[6] = Antioxidant activity assessed as inhibition of Cu2+-induced ROS production by measuring decrease in fluorescence intensity in presence of Cu2+ and ascorbate by CCA-dye based fluorescence analysis; assay type: functional
[7] = molecular target: Amyloid-beta precursor protein (Homo sapiens) (UniProt P05067); experiment: Disaggregation of self-induced amyloid beta (1 to 42) (unknown origin) preformed fibrils at 25 uM by ThT fluorescence assay
Sequence of Amyloid-beta precursor protein (Homo sapiens) (P05067 whole entry): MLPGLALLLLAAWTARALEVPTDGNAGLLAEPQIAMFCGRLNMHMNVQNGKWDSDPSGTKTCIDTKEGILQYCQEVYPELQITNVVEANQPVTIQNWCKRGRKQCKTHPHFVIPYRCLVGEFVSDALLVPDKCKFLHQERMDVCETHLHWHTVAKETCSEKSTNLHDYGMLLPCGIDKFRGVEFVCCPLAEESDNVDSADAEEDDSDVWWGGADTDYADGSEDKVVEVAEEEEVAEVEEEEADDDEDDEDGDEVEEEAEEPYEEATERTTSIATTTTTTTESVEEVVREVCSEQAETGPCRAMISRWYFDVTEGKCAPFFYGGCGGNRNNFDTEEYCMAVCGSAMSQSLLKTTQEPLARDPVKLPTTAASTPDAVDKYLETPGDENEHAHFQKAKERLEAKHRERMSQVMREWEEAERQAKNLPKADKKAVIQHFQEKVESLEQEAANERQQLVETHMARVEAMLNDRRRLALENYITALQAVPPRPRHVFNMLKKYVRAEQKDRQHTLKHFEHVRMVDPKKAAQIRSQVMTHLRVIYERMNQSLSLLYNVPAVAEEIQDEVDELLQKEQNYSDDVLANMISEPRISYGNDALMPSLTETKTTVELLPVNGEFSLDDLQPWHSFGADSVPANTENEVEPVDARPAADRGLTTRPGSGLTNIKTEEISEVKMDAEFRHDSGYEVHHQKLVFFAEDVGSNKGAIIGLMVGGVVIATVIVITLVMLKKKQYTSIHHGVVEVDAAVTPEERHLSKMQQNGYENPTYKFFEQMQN

[8] = molecular target: Amyloid-beta precursor protein (Homo sapiens) (UniProt P05067); experiment: Inhibition of self-induced amyloid beta (1 to 42) (unknown origin) aggregation assessed as short and thin fibrils incubated for 24 hrs by transmission electron microscopy
[9] = molecular target: Amyloid-beta precursor protein (Homo sapiens) (UniProt P05067); experiment: Disaggregation of self-induced amyloid beta (1 to 42) (unknown origin) preformed fibrils assessed as reduction in long fibrils formed incubated for 24 hrs by transmission electron microscopy
[10] = molecular target: Amyloid-beta precursor protein (Homo sapiens) (UniProt P05067); experiment: Disaggregation of Cu2+-induced amyloid beta (1 to 42) (unknown origin) preformed fibrils at 25 uM by ThT fluorescence assay
[11] = molecular target: Amyloid-beta precursor protein (Homo sapiens) (UniProt P05067); experiment: Disaggregation of Cu2+-induced amyloid beta (1 to 42) (unknown origin) preformed fibrils assessed as degradation of crude fibrils incubated for 24 hrs by transmission electron microcopy
[12] = molecular target: Amyloid-beta precursor protein (Homo sapiens) (UniProt P05067); experiment: Disaggregation of Cu2+-induced amyloid beta (1 to 42) (unknown origin) preformed fibrils assessed as decrease in size of aggregates incubated for 24 hrs by transmission electron microcopy
[13] = test system: BV-2; experiment: Cytotoxicity against mouse BV-2 cells assessed as effect on cell viability at 2.5 to 25 uM by MTT assay; assay type: toxicity, cell-based; conditions: bv-2, 25 µM, dose 2.5-25 µM
[14] = test system: BV-2; experiment: Anti-neuroinflammatory activity against LPS-stimulated mouse BV-2 cells assessed as inhibition of NO release at 2.5 uM incubated for 24 hrs by Griess reagent based assay; assay type: functional
[15] = test system: BV-2; experiment: Anti-neuroinflammatory activity against LPS-stimulated mouse BV-2 cells assessed as inhibition of TNF-alpha release at 0.5 uM by ELISA; assay type: functional
[16] = test system: BV-2; experiment: Anti-neuroinflammatory activity against LPS-stimulated mouse BV-2 cells assessed as inhibition of TNF-alpha release at 2.5 uM by ELISA; assay type: functional
[17] = test system: BV-2; experiment: Anti-neuroinflammatory activity against LPS-stimulated mouse BV-2 cells assessed as inhibition of TNF-alpha release at 10 uM by ELISA; assay type: functional
[18] = Half life in BALB/c mouse plasma at 30 mg/kg, ig; assay type: ADME, organism-based; conditions: po
[19] = Tmax in BALB/c mouse plasma at 30 mg/kg, ig; assay type: ADME, organism-based; conditions: po
[20] = Cmax in BALB/c mouse plasma at 30 mg/kg, ig; assay type: ADME, organism-based; conditions: po
[21] = AUC (0 to t) in BALB/c mouse plasma at 30 mg/kg, ig; assay type: ADME, organism-based; conditions: po
[22] = Ratio of AUC in brain to plasma in BALB/c at 30 mg/kg, ig; assay type: ADME, organism-based; conditions: mouse, po
[23] = test system: Mus musculus; experiment: Antialzheimer activity against amyloid beta (1-42)-induced alzheimer's disease mouse model assessed as decrease in cognitive impairment by measuring decrease in escape latency time during training phase at 8 to 32 mg/kg and measured for 5 days by Morris water maze test; assay type: functional, organism-based; conditions: dose 8-32 mg/kg, time 5.0 day
[24] = test system: Mus musculus; experiment: Antialzheimer activity against amyloid beta (1-42)-induced alzheimer's disease mouse model assessed as decrease in cognitive impairment by measuring increase in time spent in target quadrant in spatial probe trial at 8 to 32 mg/kg and measured on day 6 by Morris water maze test; assay type: functional, organism-based; conditions: dose 8-32 mg/kg, time 6.0 day
[25] = test system: Mus musculus; experiment: Antialzheimer activity against amyloid beta (1-42)-induced alzheimer's disease mouse model assessed as decrease in amyloid beta (1 to 42) level in hippocampus at 32 mg/kg and measured on day 6 by ELISA; assay type: functional, organism-based; conditions: time 6.0 day
[26] = test system: Mus musculus; experiment: Anti-inflammatory activity against amyloid beta (1 to 42)-induced alzheimer's disease mouse model assessed as decrease in TNF-alpha content in hippocampus at 8 to 32 mg/kg and measured on day 6; assay type: functional, organism-based; conditions: dose 8-32 mg/kg, time 6.0 day
[27] = molecular target: T2, MAO-A (Homo sapiens, UniProt P21397); experiment: Inhibition of human recombinant MAO-A at 10 uM
T2 sequence (P21397 whole entry): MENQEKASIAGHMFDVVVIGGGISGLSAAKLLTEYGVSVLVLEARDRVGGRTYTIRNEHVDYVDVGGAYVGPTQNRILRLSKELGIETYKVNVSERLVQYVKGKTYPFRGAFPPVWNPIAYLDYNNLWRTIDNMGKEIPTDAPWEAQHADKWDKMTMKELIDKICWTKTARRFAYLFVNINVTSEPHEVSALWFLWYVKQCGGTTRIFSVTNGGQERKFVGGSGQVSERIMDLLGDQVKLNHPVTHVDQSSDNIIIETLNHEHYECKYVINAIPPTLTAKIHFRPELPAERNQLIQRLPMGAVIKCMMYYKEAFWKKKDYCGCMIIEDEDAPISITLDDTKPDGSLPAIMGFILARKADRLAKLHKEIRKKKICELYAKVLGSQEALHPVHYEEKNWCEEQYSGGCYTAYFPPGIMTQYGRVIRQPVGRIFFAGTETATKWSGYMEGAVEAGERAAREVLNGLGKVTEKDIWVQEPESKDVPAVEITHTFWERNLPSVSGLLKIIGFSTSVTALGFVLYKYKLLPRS

For `CCCCCCCC1OC(=O)c2cc(N3N=C(c4cc(Cl)ccc4O)CC3=O)ccc21` (configuration not stated), the IC50 [1] was 410 nM, the Ratio IC50 [2] was greater than 24.4 and the Activity [3] was “Active”. The Activity [4] was “Active”, the Activity [5] was “Active” and the Activity [6] was “Active”. For the same compound, the Activity [7] was 81.9%, the inhibition [8] was “Active” and the Activity [9] was “Active”. The Activity [10] was 82.4%, the Activity [11] was “Active” and the Activity [12] was “Active”. The Activity [13] was “Non-Toxic”, the inhibition at 2.5 µM [14] was 37.9% and the inhibition at 0.5 µM [15] was 22.7%. The inhibition at 2.5 µM [16] was 51.6%, the inhibition at 10 µM [17] was 71.6% and the half-life [18] was 69 min. For the same compound, the Tmax [19] was 30 min, the Cmax [20] was 1540 ng/mL and the AUC(0-t) [21] was 2940 ng·h/mL. The Kp [22] was 0.69, the Activity [23] was “Active” and the Activity [24] was “Active”. The Activity [25] was “Active”, the Activity [26] was “Active” and the inhibition at 10 µM [27] was 32.6%.
